Data as given in US10124065B2, “Lipids and lipid compositions for the delivery of active agents” (Novartis AG, priority 2013, dated 2018).

Legend:
[1] = system: plasma Factor VII enzyme activity; assay: Mouse Factor VII dosing / Factor VII Activity Assay; assay type: in vivo; details: percent knock down of plasma Factor VII activity, CD-1 mice, 48 h; for KD FVII 0.3 mg/kg: single IV dose 0.3 mg/kg, LNP Chol/DSPC/PEG-DMG 45/44/9/2
In short: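 Female CD-1 mice (~25 g) received a single IV tail-vein dose of lipid-nanoparticle-formulated Factor VII siRNA (0.3 or 0.03 mg/kg). Plasma taken ~48 h later; FVII activity measured chromogenically against vehicle-control plasma standard curve, reported as % knockdown.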

PLK-1 mRNA = assay: LS411N Xenograft Assay; assay type: in vivo, Nu/Nu mice; details: percent knock down of PLK-1 mRNA vs control in LS411N tumors, IV 3 mg/kg daily for three days
Procedure: Female Nu/Nu mice (6-8 weeks old) were implanted subcutaneously with 5×10^6 LS411N cells. Tumor growth was monitored by caliper measurement before treatment initiation. Mice bearing 150-250 mm^3 subcutaneous tumors were randomized and enrolled in the study. The stock siRNA formulations were diluted to […] with PBS for dosing. Animals enrolled in different groups received a single daily bolus IV injection of 3 mg/kg siRNA for three days. Tumors were harvested 24 hours post last injection to assess target gene regulation by qRT-PCR.
Lipid nanoparticles comprising lipid compounds of formula (I) and the PLK1-424 siRNA duplex sequence listed above were tested in the LS411N Xenograft Assay. The results of this assay are given in Table 5 below as a percent knock down of PLK-1 mRNA as compared to the control when administered as a single daily dose for three days at a dose of 3 mg/kg.

human leptin = assay: Mouse intravenous tail vein injection of modified synthetic leptin mRNA, human leptin ELISA; assay type: in vivo, C57BL/6 mouse; details: human leptin in mouse plasma, 10 μg leptin mRNA, 24 h

SMILES	KD FVII 0.03 mg/kg ([1]; single IV dose 0.03 mg/kg, LNP Chol/DSPC/S010 45/44/9/2)	KD FVII 0.3 mg/kg [1]	LS411 KD 3 × 3 mg/Kg (PLK-1 mRNA; LNP Chol/DSPC/PEG-DSG 45/44/9/2)	LS411 KD 3 × 3 mg/Kg (PLK-1 mRNA; LNP Chol/DSPC/S010 45/44/9/2)	Leptin expression IV-C57BI/6, 24 h (human leptin)
CCCCC/C=C\C/C=C\CCCCCCCC(=O)OCCCCOc1cc(CN(C)C)cc(OCCCCOC(=O)CCCCCCC/C=C\C/C=C\CCCCC)c1 [Example 38, (9Z,9′Z,12Z,12′Z)-((5-((dimethylamino)methyl)-1,3-phenylene)bis(oxy))bis(butane-4,1-diyl)bis(octadeca-9,12-dienoate)]	43.6%	99%	58%	60%	17.21 ng/mL
CCCCCCCCCCOC(=O)CCCCCCCOc1cc(CN(C)C)cc(OCCCCCCCC(=O)OCCCCCCCCCC)c1 [Example 57, didecyl 8,8′-((5-((dimethylamino)methyl)-1,3-phenylene)bis(oxy))dioctanoate]		96.7%		60%	9.17 ng/mL
